The values that follow are results of earlier work, collected in article PMC11866498 (Cell Reports Medicine, 2025).

Structures are written as SMILES.

The conditions of series [1]: ref Previous studies.
For series [2] the following is noted: ref Previous studies. The source holds these as a separate data set.

For `C[C@H]1COC2=C1C(=O)C(=O)c1c2ccc2c1CCCC2(C)C` [CTS, cryptotanshinone], in series [1], the water solubility result is recorded as “inadequate”. Further, the in vivo stability entry in series [2] is reported as “inadequate”.
